Test results: paper PMC7145527 (2019)
Blank lines part the entries; values can stand above or below the compound they belong to.

Legend:
[1] = system: wt Chili RNA aptamer (RNA, aptamer) GGCUAGCUGGAGGGGCGCCAGUUCGCUGGUGGUUGGGUGCGGUCGGCUAGCC; assay: fluorescence activation kinetics; conditions: K+ 125 mM, Mg2+ 5 mM; 40 mM HEPES pH 7.5, 25 °C; 0.025 µM RNA
[2] = system: wt Chili RNA aptamer (RNA, aptamer) GGCUAGCUGGAGGGGCGCCAGUUCGCUGGUGGUUGGGUGCGGUCGGCUAGCC; assay: fluorescence activation
[3] = system: wt Chili RNA aptamer (RNA, aptamer) GGCUAGCUGGAGGGGCGCCAGUUCGCUGGUGGUUGGGUGCGGUCGGCUAGCC; assay: isothermal titration calorimetry; conditions: K+ 125 mM, Mg2+ 5 mM; HEPES pH 7.5, 25 °C
[4] = system: Chili G35A (RNA, aptamer) GGCUAGCUGGAGGGGCGCCAGUUCGCUGGUGGUUAGGUGCGGUCGGCUAGCC; assay: fluorescence activation; conditions: K+ 125 mM, Mg2+ 5 mM, HEPES pH 7.5
[5] = system: Chili C16U (RNA, aptamer) GGCUAGCUGGAGGGGUGCCAGUUCGCUGGUGGUUGGGUGCGGUCGGCUAGCC; assay: fluorescence activation; conditions: K+ 125 mM, Mg2+ 5 mM; HEPES pH 7.5; inferred from absent fluorescence; 0.5 µM RNA and dye
[6] = system: Chili C16U/G31A (RNA, aptamer) GGCUAGCUGGAGGGGUGCCAGUUCGCUGGUAGUUGGGUGCGGUCGGCUAGCC; assay: fluorescence activation; conditions: K+ 125 mM, Mg2+ 5 mM; HEPES pH 7.5; inferred from absent fluorescence; 0.5 µM RNA and dye
[7] = system: Chili G36A (RNA, aptamer) GGCUAGCUGGAGGGGCGCCAGUUCGCUGGUGGUUGAGUGCGGUCGGCUAGCC; assay: fluorescence activation; conditions: K+ 125 mM, Mg2+ 5 mM, HEPES pH 7.5
[8] = system: Chili G31A (RNA, aptamer) GGCUAGCUGGAGGGGCGCCAGUUCGCUGGUAGUUGGGUGCGGUCGGCUAGCC; assay: fluorescence activation; conditions: K+ 125 mM, Mg2+ 5 mM; HEPES pH 7.5; inferred from absent fluorescence; 0.5 µM RNA and dye
[9] = system: wt Chili RNA aptamer (RNA, aptamer) GGCUAGCUGGAGGGGCGCCAGUUCGCUGGUGGUUGGGUGCGGUCGGCUAGCC; assay: imino 1H NMR; conditions: K+ 50 mM, Mg2+ 1 mM; 25 mM KPi pH 7.4; 20 µM RNA, 20 µM dye
[10] = system: wt Chili RNA aptamer (RNA, aptamer) GGCUAGCUGGAGGGGCGCCAGUUCGCUGGUGGUUGGGUGCGGUCGGCUAGCC; assay: fluorescence titration; conditions: K+ 125 mM, Mg2+ 5 mM, HEPES pH 7.5, incubated at 4 °C 16 h
[11] = system: Chili C40U (RNA, aptamer) GGCUAGCUGGAGGGGCGCCAGUUCGCUGGUGGUUGGGUGUGGUCGGCUAGCC; assay: fluorescence activation; conditions: K+ 125 mM, Mg2+ 5 mM; HEPES pH 7.5; I540 156.1 versus wt 200.2
[12] = system: Chili U34C (RNA, aptamer) GGCUAGCUGGAGGGGCGCCAGUUCGCUGGUGGUCGGGUGCGGUCGGCUAGCC; assay: fluorescence activation; conditions: K+ 125 mM, Mg2+ 5 mM; HEPES pH 7.5; I540 203.1 versus wt 200.2
[13] = system: Chili U38C (RNA, aptamer) GGCUAGCUGGAGGGGCGCCAGUUCGCUGGUGGUUGGGCGCGGUCGGCUAGCC; assay: fluorescence activation; conditions: K+ 125 mM, Mg2+ 5 mM; HEPES pH 7.5; I540 129.3 versus wt 200.2
[14] = system: Chili C44U (RNA, aptamer) GGCUAGCUGGAGGGGCGCCAGUUCGCUGGUGGUUGGGUGCGGUUGGCUAGCC; assay: fluorescence activation; conditions: K+ 125 mM, Mg2+ 5 mM; HEPES pH 7.5; I540 122.6 versus wt 200.2
[15] = system: wt Chili RNA aptamer (RNA, aptamer) GGCUAGCUGGAGGGGCGCCAGUUCGCUGGUGGUUGGGUGCGGUCGGCUAGCC; assay: fluorescence competition; conditions: K+ 125 mM, Mg2+ 5 mM; 40 mM HEPES pH 7.5; competes with DMHBAI; up to 5 µM (tenfold excess)
[16] = K+ 125 mM, Mg2+ 5 mM, 80 mM HEPES pH 7.5, 0.5 µM RNA, 0.5 µM dye
[17] = weaker fluorescence than parent Chili

- kon [1]: 65000 M⁻¹ s⁻¹
Structure (SMILES): COc1cc(/C=C2\N=C(C=NO)N(c3ccc([N+](C)(C)C)cc3)C2=O)cc(OC)c1O

- binding [2, 16]: yes
Structure (SMILES): COc1cc(/C=C2N=C(/C=C/c3c[nH]cn3)N(C)C\2=O)cc(OC)c1O

- KD [3]: 24.1 ± 5.6 nM
- binding [4, 17]: yes
- kon [1]: 82000 M⁻¹ s⁻¹
- binding [5]: no
- binding [6]: no
- binding [7, 17]: yes
- binding [8]: no
Structure (SMILES): COc1cc(/C=C2\N=C(C)N(c3ccc([N+](C)(C)C)cc3)C2=O)cc(OC)c1O

- binding [9]: yes
Structure (SMILES): COc1cc(/C=C2N=C(/C=C/c3ccccc3)N(C)C\2=O)cc(OC)c1O

- binding [2, 16]: yes
Structure (SMILES): COc1cc(/C=C2\N=C(C)N([C@H]3CC[C@H](C)CC3)C2=O)cc(OC)c1O

- binding [2, 16]: yes
Structure (SMILES): COc1ccc(N2C(=O)/C(=C/c3ccc(O)c(OC)c3)N=C2C)cc1

- KD ([10]; Figure S6 legend instead prints 0.377±0.024 µM): 151 ± 21 nM
Structure (SMILES): COc1cc(/C=C2\N=C(C)N(c3ccc(C)cc3)C2=O)cc(OC)c1O

- KD ([10]; dye 0.1 µM): 65 ± 7 nM
Structure (SMILES): COc1ccc(N2C(=O)/C(=C/c3cc(OC)c(O)c(OC)c3)N=C2C)cc1

- binding [2, 16]: yes
Structure (SMILES): COc1cc(/C=C2\N=C(C)N(C)C2=O)cc(Br)c1O

- KD [3]: 371 ± 55 nM
- binding ([4]; I540 138.2 versus wt 200.2): yes
- binding [11]: yes
- binding [12]: yes
- binding [5]: no
- binding [13]: yes
- binding [6]: no
- binding ([7]; I540 192.9 versus wt 200.2): yes
- binding [14]: yes
- binding [8]: no
Structure (SMILES): COc1cc(/C=C2\N=C(C)N(C)C2=O)cc(OC)c1O

- binding [2, 16]: yes
Structure (SMILES): COc1cc(/C=C2N=C(/C=C/c3c[nH]c4ccccc34)N(C)C\2=O)cc(OC)c1O

- binding [15]: no
Structure (SMILES): COc1ccc(N2C(=O)/C(=C/c3cc(OC)cc(OC)c3)N=C2C)cc1

- binding [2]: yes
Structure (SMILES): CN1C(=Cc2cc[n+](C)c3ccccc23)Sc2ccccc21

- binding [9]: yes
Structure (SMILES): COc1cc(/C=C2N=C(/C=C/c3ccncc3)N(C)C\2=O)cc(OC)c1O

- binding [2, 16]: yes
Structure (SMILES): COc1cc(/C=C2N=C(/C=C/c3ccccc3)N(c3ccc([N+](C)(C)C)cc3)C\2=O)cc(OC)c1O

- binding [2, 16]: yes
Structure (SMILES): COc1cc(/C=C2N=C(/C=C/c3c[nH]c4ccccc34)N(c3ccc(C)cc3)C\2=O)cc(OC)c1O

- binding [2]: yes
Structure (SMILES): Cc1ccc2c(c1)sc(-c1ccc(N(C)C)cc1)[n+]2C

- binding [2, 16]: yes
Structure (SMILES): COc1cc(/C=C2\N=C(C)N(c3ccccc3)C2=O)cc(OC)c1O

- binding [2, 16]: yes
Structure (SMILES): CCN1C(=O)/C(=C/c2cc(OC)c(O)c(OC)c2)N=C1C
